Results taken from patent publication US20090042937A1, “[…] USE IN TREATING OR […]-RELATED DISEASES” (priority 2005, published 2009).
Several values for one entry are separate records, joined by “and”; a condition that tells them apart may be missing. Equal entries are not always repeated.

Experiments:
[1] = tested on: T-cell specific GTPase (U15636); test: Microarray gene expression in cardiac tissue of Tempol-fed mice; format: in vivo; details: individual mice, 5 mg/g of food from 14 to 31 months
Procedure: (§1) To assess the effects of Tempol on gene expression, Tempol was administered to experimental mice at a dose of 5 mg/g of food from 14 months to 31 months after birth. Mice receiving the same food without the addition of Tempol were used as a negative control. At the age of 31 months, the experimental animals were sacrificed and the hearts were surgically removed. The expression of a broad spectrum of genes in the cardiac tissue was assessed using chip-based microarray technology. Such chips are well known in the art and are widely used to assess gene expression.

[2] = tested on: T-lymphocyte 1/rpt-1 regulatory protein (J03776); test: as above; format: in vivo; details: 5 mg/g of food from 14 to 31 months
Procedure: as §1

[3] = tested on: XPE UV-damaged DNA binding factor (W62091); test: as above; format: in vivo; details: 5 mg/g of food from 14 to 31 months
Procedure: as §1

[4] = tested on: XPE-DNA damage binding protein (AA104319); test: as above; format: in vivo; details: 5 mg/g of food from 14 to 31 months
Procedure: as §1

[5] = tested on: Caspase 3; test: Microarray gene expression in adipose tissue of Tempol-fed mice; format: in vivo
Procedure: (§2) In a further gene expression study, Tempol was administered to experimental mice at a dose of 5 g/kg of diet from 12 months through 15 months. Mice receiving the same diet without the addition of Tempol were used as a negative control. At the age of 15 months, the adipose tissue of the experimental animals was obtained. The expression of a broad spectrum of genes in the adipose tissue was assessed using chip-based microarray technology. Specifically, in this case an Affymetrix MOE430A 2.0 array, containing 12,960 genes, was employed. Such chips are well known in the art and are widely used to assess gene expression.

[6] = tested on: Cyclooxygenase 1 (COX-1); test: as above; format: in vivo
Procedure: as §2

[7] = tested on: Eukaryotic translation initiation factor 4 E2 (EIF4E2); test: as above; format: in vivo
Procedure: as §2

[8] = tested on: Eukaryotic translation initiation factor for E binding protein 1 (EIF4EBP1); test: as above; format: in vivo
Procedure: as §2

[9] = tested on: JAK-1; test: Circulating serum protein levels in patient after Tempol treatment; format: in vivo, human; details: 1500 mg per day for 180 days
Excerpt: (§3) This may be administered in a single dose, or may be administered as a number of smaller doses over a 24-hour period: for example, three 500-mg doses at eight-hour intervals. Following treatment, the circulating serum protein levels of serum amyloid P-component precursor, serum amyloid A-1 protein precursor, JAK-1, cathepsin B, eukaryotic translation initiation factor 4E member 2, cyclooxygenase-1, and caspase 3 are reduced. Furthermore, the serum protein levels of eukaryotic translation initiation factor 4E binding protein are increased.
as §3, with “JAK-1, and” for “JAK-1,”

[10] = tested on: caspase 3; test: as above; format: in vivo, human; details: 1500 mg per day for 180 days
Excerpt: as §3
as §3, with “JAK-1, and” for “JAK-1,”

[11] = tested on: cathepsin B; test: as above; format: in vivo, human; details: 1500 mg per day for 180 days
Excerpt: as §3
as §3, with “JAK-1, and” for “JAK-1,”

[12] = tested on: cyclooxygenase-1; test: as above; format: in vivo, human; details: 1500 mg per day for 180 days
Excerpt: as §3
as §3, with “JAK-1, and” for “JAK-1,”

[13] = tested on: eukaryotic translation initiation factor 4E binding protein; test: as above; format: in vivo, human; details: 1500 mg per day for 180 days
Excerpt: as §3
as §3, with “JAK-1, and” for “JAK-1,”

[14] = tested on: eukaryotic translation initiation factor 4E member 2; test: as above; format: in vivo, human; details: 1500 mg per day for 180 days
Excerpt: as §3
as §3, with “JAK-1, and” for “JAK-1,”

[15] = tested on: serum amyloid A-1 protein precursor; test: as above; format: in vivo, human; details: 1500 mg per day for 180 days
Excerpt: as §3
as §3, with “JAK-1, and” for “JAK-1,”

[16] = tested on: serum amyloid P-component precursor; test: as above; format: in vivo, human; details: 1500 mg per day for 180 days
Excerpt: as §3
as §3, with “JAK-1, and” for “JAK-1,”

[17] = adipose tissue of experimental mice, Table 4
[18] = Example 1: 70-kilogram patient with symptoms of dementia
[19] = Example 2: 70-kilogram patient with familial risk factors, no symptoms of dementia

CC1(C)CC(O)CC(C)(C)N1[O] [Tempol, 4-hydroxy-2,2,6,6-tetramethylpiperidine-1-oxyl]
Expression, TEMPOL-treated mice (tp51, tp52, tp53) [1]: 146 and 79 and 164 | Fold change ([2]; TEMPOL-treated vs control mice): −2.7 fold | Expression, TEMPOL-treated mice (tp51, tp52, tp53) ([2]; individual mice): 17 and 42 and 29 | Fold change ([3]; TEMPOL-treated vs control mice): −2.9 fold | Expression, TEMPOL-treated mice (tp51, tp52, tp53) ([3]; individual mice): 61 and 75 and 213 | Fold change ([4]; TEMPOL-treated vs control mice): −5.2 fold | Expression, TEMPOL-treated mice (tp51, tp52, tp53) ([4]; individual mice): 25 and 37 and 115 | Mean (Tempol-treated mice) ([5]; Caspase 3, adipose tissue, 5 g/kg of diet from 12 through 15 months, Affymetrix MOE430A 2.0 array): 414 | Fold change ([5]; Caspase 3, adipose tissue, Tempol-treated vs control mice, 5 g/kg of diet from 12 through 15 months): −1.47 fold | expression of caspase 3 reduced [5, 17]: 1.47 fold | Mean (Tempol-treated mice) ([6]; COX-1, adipose tissue, 5 g/kg of diet from 12 through 15 months, Affymetrix MOE430A 2.0 array): 331 | Fold change ([6]; COX-1, adipose tissue, Tempol-treated vs control mice, 5 g/kg of diet from 12 through 15 months): −1.18 fold | expression of COX-1 reduced [6, 17]: 1.18 fold | Mean (Tempol-treated mice) ([7]; EIF4E2, 5 g/kg of diet from 12 through 15 months, Affymetrix MOE430A 2.0 array): 873 | Fold change ([7]; EIF4E2, Tempol-treated vs control mice, 5 g/kg of diet from 12 through 15 months): −1.23 fold | expression of the EIF4E2 protein downregulated ([7]; Table 4): 1.23 fold | Mean (Tempol-treated mice) ([8]; EIF4EBP1, 5 g/kg of diet from 12 through 15 months, Affymetrix MOE430A 2.0 array): 4737 | Fold change ([8]; EIF4EBP1, Tempol-treated vs control mice, 5 g/kg of diet from 12 through 15 months): 1.29 fold | expression of EIF4E binding protein 1 upregulated ([8]; Table 3): 1.29 fold | circulating serum protein level of JAK-1 [9, 18]: reduced | circulating serum protein level of JAK-1 [9, 19]: reduced | circulating serum protein level of caspase 3 [10, 18]: reduced | circulating serum protein level of caspase 3 [10, 19]: reduced | circulating serum protein level of cathepsin B [11, 18]: reduced | circulating serum protein level of cathepsin B [11, 19]: reduced | circulating serum protein level of cyclooxygenase-1 [12, 18]: reduced | circulating serum protein level of cyclooxygenase-1 [12, 19]: reduced | serum protein level of eukaryotic translation initiation factor 4E binding protein [13, 18]: increased | serum protein level of eukaryotic translation initiation factor 4E binding protein [13, 19]: increased | circulating serum protein level of eukaryotic translation initiation factor 4E member 2 [14, 18]: reduced | circulating serum protein level of eukaryotic translation initiation factor 4E member 2 [14, 19]: reduced | circulating serum protein level of serum amyloid A-1 protein precursor [15, 18]: reduced | circulating serum protein level of serum amyloid A-1 protein precursor [15, 19]: reduced | circulating serum protein level of serum amyloid P-component precursor [16, 18]: reduced | circulating serum protein level of serum amyloid P-component precursor [16, 19]: reduced
